Data taken from the supplement of paper PMC4862054.

Legend:
Conditions in all cases: incubation time: 72 h
BT-474 [1] = assay: drug sensitivity score (DSS), CellTox Green (DSS (AUC-based score)); higher = stronger drug effect (viability inhibition or cytotoxicity); extreme values may be limits of the assay
In short: (§1)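 Compound was dispensed into 384-well plates at 5 concentrations in 10-fold steps spanning a 10,000-fold range chosen for each compound, and 20 µl of breast cancer cell suspension was added before 72 h of incubation. CellTox Green fluorescence was read at 485/520 nm, followed by CellTiter-Glo luminescence after 10 min at room temperature. Values on each plate were normalised to 0.1 % DMSO and a positive kill control. The drug sensitivity score came from the area under the fitted dose-response curve.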

HCC1937 [2] = assay: as above
In short: as §1

HCC1599 [3] = assay: as above
In short: as §1

BT-549 [4] = assay: as above
In short: as §1

MDA-MB-436 [5] = assay: as above
In short: as §1

DU-4475 [6] = assay: as above
In short: as §1

HDQ-P1 [7] = assay: normalised viability (% of control), CellTiter-Blue; higher = more viable cells (about 100 = DMSO control)
Method: (§2)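 DSRT, CellTiter-Blue viability, 72 h incubation. Signal is normalised to DMSO and benzethonium chloride controls. Value is the normalised response at dose 7.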

CAL-148 [8] = assay: as above
Method: as §2

CAL-51 [9] = assay: as above
Method: as §2

DU-4475 [10] = assay: as above
Method: as §2

MDA-MB-453 [11] = assay: as above
Method: as §2

CAL-85-1 [12] = assay: as above
Method: as §2

BT-474 [13] = assay: normalised viability (% of control), CellTiter-Blue; higher = more viable cells (about 100 = DMSO control)
In short: (§3)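 The reported figure is normalised viability at a single listed concentration of the series. Breast cancer cell lines (20 µl suspension) went onto 384-well plates holding compound in 5 µl medium for 72 h. CellTiter-Blue (2.5 µl, 2 h, 37 °C) was read by fluorescence at 560/590 nm, and each plate was scaled to vehicle at 100 and a positive kill control at 0.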

MFM-223 = assay: as above
In short: as §3

HCC1937 [14] = assay: as above
In short: as §3

SK-BR-3 = assay: as above
In short: as §3

HCC1599 [15] = assay: as above
In short: as §3

HDQ-P1 [16] = assay: as above; remark: listed apart in the source
In short: as §3

Hs578T = assay: as above
In short: as §3

BT-549 [17] = assay: as above
In short: as §3

MDA-MB-231 = assay: as above
In short: as §3

HCC1143 = assay: as above
In short: as §3

MDA-MB-436 [18] = assay: as above
In short: as §3

CAL-148 [19] = assay: as above; remark: listed apart in the source
In short: as §3

CAL-51 [20] = assay: as above; remark: listed apart in the source
In short: as §3

CAL-120 = assay: as above
In short: as §3

DU-4475 [21] = assay: as above; remark: listed apart in the source
In short: as §3

MDA-MB-453 [22] = assay: as above; remark: listed apart in the source
In short: as §3

CAL-85-1 [23] = assay: as above; remark: listed apart in the source
In short: as §3

MDA-MB-468 = assay: as above
In short: as §3

## C/C(=C\c1csc(C)n1)[C@@H]1C[C@@H]2O[C@]2(C)CCC[C@H](C)[C@H](O)[C@@H](C)C(=O)C(C)(C)[C@@H](O)CC(=O)O1 [Patupilone]
BT-474 [1]
  drug sensitivity score: 8.09
HCC1937 [2]
  drug sensitivity score: 0
HCC1599 [3]
  drug sensitivity score: 0
BT-549 [4]
  drug sensitivity score: 0
MDA-MB-436 [5]
  drug sensitivity score: 10.2
DU-4475 [6]
  drug sensitivity score: 0
HDQ-P1 [7]; 100 nM
  normalised viability: 41.5%
CAL-148 [8]; 100 nM
  normalised viability: 17.9%
CAL-51 [9]; 100 nM
  normalised viability: 12.2%
DU-4475 [10]; 100 nM
  normalised viability: 7.8%
MDA-MB-453 [11]; 100 nM
  normalised viability: 20.4%
CAL-85-1 [12]; 100 nM
  normalised viability: 28.6%
BT-474 [13]; 1 nM
  normalised viability: 103%
MFM-223; 1 nM
  normalised viability: 105%
HCC1937 [14]; 1 nM
  normalised viability: 79.4%
SK-BR-3; 1 nM
  normalised viability: 112%
HCC1599 [15]; 1 nM
  normalised viability: 108%
HDQ-P1 [16]; 0.3 nM
  normalised viability: 107%
Hs578T; 1 nM
  normalised viability: 102%
BT-549 [17]; 1 nM
  normalised viability: 106%
MDA-MB-231; 1 nM
  normalised viability: 59.6%
HCC1143; 1 nM
  normalised viability: 91.6%
MDA-MB-436 [18]; 1 nM
  normalised viability: 86.8%
CAL-148 [19]; 0.3 nM
  normalised viability: 96.3%
CAL-51 [20]; 0.3 nM
  normalised viability: 106%
CAL-120; 1 nM
  normalised viability: 109%
DU-4475 [21]; 0.3 nM
  normalised viability: 90.2%
MDA-MB-453 [22]; 0.3 nM
  normalised viability: 114%
CAL-85-1 [23]; 0.3 nM
  normalised viability: 95.2%
MDA-MB-468; 1 nM
  normalised viability: 96%

## CNNCc1ccc(C(=O)NC(C)C)cc1 [Procarbazine]
BT-474 [1]
  drug sensitivity score: 0
HCC1937 [2]
  drug sensitivity score: 1.67
HCC1599 [3]
  drug sensitivity score: 0
BT-549 [4]
  drug sensitivity score: 0
MDA-MB-436 [5]
  drug sensitivity score: 0
DU-4475 [6]
  drug sensitivity score: 0
HDQ-P1 [7]; 1000 nM
  normalised viability: 95.7%
CAL-148 [8]; 1000 nM
  normalised viability: 87.9%
CAL-51 [9]; 1000 nM
  normalised viability: 100%
DU-4475 [10]; 1000 nM
  normalised viability: 105%
MDA-MB-453 [11]; 1000 nM
  normalised viability: 113%
CAL-85-1 [12]; 1000 nM
  normalised viability: 89.2%
BT-474 [13]; 10 nM
  normalised viability: 106%
MFM-223; 10 nM
  normalised viability: 98.4%
HCC1937 [14]; 10 nM
  normalised viability: 87%
SK-BR-3; 10 nM
  normalised viability: 110%
HCC1599 [15]; 10 nM
  normalised viability: 97.4%
HDQ-P1 [16]; 3 nM
  normalised viability: 146%
Hs578T; 10 nM
  normalised viability: 105%
BT-549 [17]; 10 nM
  normalised viability: 111%
MDA-MB-231; 10 nM
  normalised viability: 109%
HCC1143; 10 nM
  normalised viability: 93.1%
MDA-MB-436 [18]; 10 nM
  normalised viability: 97%
CAL-148 [19]; 3 nM
  normalised viability: 103%
CAL-51 [20]; 3 nM
  normalised viability: 107%
CAL-120; 10 nM
  normalised viability: 104%
DU-4475 [21]; 3 nM
  normalised viability: 90.7%
MDA-MB-453 [22]; 3 nM
  normalised viability: 114%
CAL-85-1 [23]; 3 nM
  normalised viability: 95.6%
MDA-MB-468; 10 nM
  normalised viability: 105%

## CN(C)C[C@@H]1CCn2cc(c3ccccc32)C2=C(C(=O)NC2=O)c2cn(c3ccccc23)CCO1 [Ruboxistaurin]
BT-474 [1]
  drug sensitivity score: 17.2
HCC1937 [2]
  drug sensitivity score: 1.71
HCC1599 [3]
  drug sensitivity score: 0
BT-549 [4]
  drug sensitivity score: 2.34
MDA-MB-436 [5]
  drug sensitivity score: 5.62
DU-4475 [6]
  drug sensitivity score: 0
HDQ-P1 [7]; 1000 nM
  normalised viability: 67.1%
CAL-148 [8]; 1000 nM
  normalised viability: 101%
CAL-51 [9]; 1000 nM
  normalised viability: 76.8%
DU-4475 [10]; 1000 nM
  normalised viability: 73.9%
MDA-MB-453 [11]; 1000 nM
  normalised viability: 102%
CAL-85-1 [12]; 1000 nM
  normalised viability: 122%
BT-474 [13]; 10 nM
  normalised viability: 96.7%
MFM-223; 10 nM
  normalised viability: 97.6%
HCC1937 [14]; 10 nM
  normalised viability: 44.5%
SK-BR-3; 10 nM
  normalised viability: 101%
HCC1599 [15]; 10 nM
  normalised viability: 109%
HDQ-P1 [16]; 3 nM
  normalised viability: 79.3%
Hs578T; 10 nM
  normalised viability: 96.4%
BT-549 [17]; 10 nM
  normalised viability: 85.2%
MDA-MB-231; 10 nM
  normalised viability: 95%
HCC1143; 10 nM
  normalised viability: 135%
MDA-MB-436 [18]; 10 nM
  normalised viability: 94.1%
CAL-148 [19]; 3 nM
  normalised viability: 124%
CAL-51 [20]; 3 nM
  normalised viability: 98.6%
CAL-120; 10 nM
  normalised viability: 108%
DU-4475 [21]; 3 nM
  normalised viability: 113%
MDA-MB-453 [22]; 3 nM
  normalised viability: 94.7%
CAL-85-1 [23]; 3 nM
  normalised viability: 105%
MDA-MB-468; 10 nM
  normalised viability: 94.5%

## CN1CCN(CCOc2cc(OC3CCOCC3)c3c(Nc4c(Cl)ccc5c4OCO5)ncnc3c2)CC1 [Saracatinib]
BT-474 [1]
  drug sensitivity score: 1.96
HCC1937 [2]
  drug sensitivity score: 0
HCC1599 [3]
  drug sensitivity score: 0
BT-549 [4]
  drug sensitivity score: 0
MDA-MB-436 [5]
  drug sensitivity score: 9.13
DU-4475 [6]
  drug sensitivity score: 0
HDQ-P1 [7]; 1000 nM
  normalised viability: 40.6%
CAL-148 [8]; 1000 nM
  normalised viability: 83.9%
CAL-51 [9]; 1000 nM
  normalised viability: 60.9%
DU-4475 [10]; 1000 nM
  normalised viability: 102%
MDA-MB-453 [11]; 1000 nM
  normalised viability: 86.5%
CAL-85-1 [12]; 1000 nM
  normalised viability: 51.4%
BT-474 [13]; 10 nM
  normalised viability: 100%
MFM-223; 10 nM
  normalised viability: 104%
HCC1937 [14]; 10 nM
  normalised viability: 107%
SK-BR-3; 10 nM
  normalised viability: 99.6%
HCC1599 [15]; 10 nM
  normalised viability: 86.7%
HDQ-P1 [16]; 3 nM
  normalised viability: 118%
Hs578T; 10 nM
  normalised viability: 102%
BT-549 [17]; 10 nM
  normalised viability: 94.2%
MDA-MB-231; 10 nM
  normalised viability: 80.7%
HCC1143; 10 nM
  normalised viability: 88%
MDA-MB-436 [18]; 10 nM
  normalised viability: 116%
CAL-148 [19]; 3 nM
  normalised viability: 77.1%
CAL-51 [20]; 3 nM
  normalised viability: 107%
CAL-120; 10 nM
  normalised viability: 87.6%
DU-4475 [21]; 3 nM
  normalised viability: 96.6%
MDA-MB-453 [22]; 3 nM
  normalised viability: 119%
CAL-85-1 [23]; 3 nM
  normalised viability: 85.5%
MDA-MB-468; 10 nM
  normalised viability: 108%
